Patent US10633669B2, “Herbicide-resistant protein, encoding gene and use thereof” (BEIJING DABEINONG TECHNOLOGY GROUP CO., LTD., priority 2015, dated 2020)

Experiments:
[1] = test system: Arabidopsis T1 plants transformed with 24DT11 nucleotide sequence; experiment: Herbicide resistance effect test of transgenic Arabidopsis T1 plants (spray); type: in vivo, Arabidopsis thaliana; conditions: genotype 24DT11; for High resistant (number of plants): 560 g ae/ha (1-fold field concentration), growth consistent with blank solvent 7 days after spraying; for Moderate resistant (number of plants) / Non-resistant (number of plants) / Low resistant (number of plants): 560 g ae/ha; for Moderate resistant (number of plants): curly rosette leaves 7 days after spraying; for Non-resistant (number of plants): dead 14 days after spraying; for Low resistant (number of plants): incapable of bolting 14 days after spraying
From the text: (§1) 24DT11 gene was used to transform Arabidopsis for the first time. At first, T1 transformants were selected from the background of un-transformed seeds, using glufosinate-ammonium selection scheme. About 20000 T1 seeds are screened among which 282 strains of T1 generation positive transformants (PAT gene) were identified, i.e. the transformation efficiency was about 1.4%. Herbicide resistance effect tests to 2,4-D dimethyl ammonium salt and agroxone of Arabidopsis T1 plants transformed with 24DT11 nucleotide sequence, control nucleotide sequence respectively and wild-type Arabidopsis plants were performed after 18 days of planting.
(§2) Arabidopsis T1 plants transformed with 24DT11 nucleotide sequence, control nucleotide sequence respectively and wild-type Arabidopsis plants were sprayed with 2,4-D dimethyl ammonium salt (560 g ae/ha, 1-fold concentration in field), agroxone (560 g ae/ha, 1-fold concentration in field) and blank solvent (water). Resistance conditions of the plants were counted 7 days and 14 days after spraying. Plants with growth conditions consistent with blank solvent (water) 7 days after spaying were classified as highly resistant plants; Plants with curly rosette leaves 7 days after spaying were classified as moderately resistant plants; Plants incapable of bolting 14 days after spaying were classified as low-resistant plants and the dead plants 14 days after spaying were classified as non-resistant plants. Because each Arabidopsis T1 plant is an independent transformation event, significant differences of individual T1 responses can be expected under a given dose.

[2] = test system: wild type corn plants (CK2); experiment: Herbicide-resistance effect test of wild type corn (spray, prop root development); type: in vivo; conditions: wild type corn strain CK2; 8960 g ae/ha; 21 days after spraying
Protocol: (§3) Herbicide resistance effects tests to 2,4-D dimethyl ammonium salt and agroxone of corn plants containing 24DT11 nucleotide sequence, control nucleotide sequence respectively and wild type corn plants (stages V3-V4) were performed respectively.
(§4) Corn plants containing 24DT11 nucleotide sequence, control nucleotide sequence respectively and wild type corn plants were taken and spayed with 2,4-D dimethyl ammonium salt (8960 g ae/ha, 16-folds concentration in field), agroxone (8960 g ae/ha, 16-folds concentration in field) and blank solvent (water) respectively. Prop root development was counted 21 days after spaying. Three strains (S6, S7 and S8) of corn plants transformed with 24DT11 nucleotide sequence, two strains (S9 and S10) of corn plants transformed with control nucleotide sequence and 1 strain of wild type (CK2) corn were selected and 10-15 plants from each stain were tested.

[3] = test system: Arabidopsis T1 plants transformed with control nucleotide sequence; experiment: Herbicide resistance effect test of Arabidopsis T1 plants with control sequence (spray); type: in vivo, Arabidopsis thaliana; conditions: genotype Control, 560 g ae/ha; for Moderate resistant (number of plants): curly rosette leaves 7 days after spraying; for Non-resistant (number of plants): dead 14 days after spraying; for High resistant (number of plants): growth consistent with blank solvent 7 days after spraying; for Low resistant (number of plants): incapable of bolting 14 days after spraying
From the text: as §1, §2

[4] = test system: wild type soybean plants (CK1); experiment: Herbicide-resistance effect of wild type soybean (spray, damage degree); type: in vivo; conditions: wild-type soybean strain CK1, 2240 g ae/ha; for Average damage % 6HAT: 6 hours after spraying; for Average damage % 2DAT: 2 days after spraying; for Average damage % 7DAT: 7 days after spraying; for Average damage % 14DAT: 14 days after spraying
Protocol: (§5) Herbicide resistance effects tests to 2,4-D dimethyl ammonium salt and agroxone of soybean plants containing 24DT11 nucleotide sequence and control nucleotide sequence respectively and wild type soybean plants (stages V3-V4) were performed respectively.
(§6) Soybean plants containing 24DT11 nucleotide sequence, control nucleotide sequence and wild type soybean plants were taken and spayed with 2,4-D dimethyl ammonium salt (2240 g ae/ha, four-folds concentration in field), agroxone (2240 g ae/ha, four-folds concentration in field) and blank solvent (water). Take statistics of the damage degree of each plant caused by herbicides according to the curling degree of leaves and the damage degree of growing point six hours ([…]), two days (2DAT), seven days (7DAT) and 14 days (14DAT) after spraying respectively: if leaves are flat like wild-type leaves and the growing point is intact, the damage degree is 0%; if leaves curl up and wilt and the growing point is died, the damage degree is 100%. There are three strains contained a transferred 24DT11 nucleotide sequence (S1, S2 and S3), two strains contained a transferred control sequence (S4 and S5) and one wild-type strain (CK1) in total; select 10˜15 plants from each strain for testing.

[5] = test system: Corn plants containing 24DT11 nucleotide sequence (S6, S7 and S8); experiment: Herbicide-resistance effect test of transgenic corn plants (spray, prop root development); type: in vivo; conditions: 21 days after spraying
Protocol: as §3, §4

[6] = test system: wild-type Arabidopsis plants; experiment: Herbicide resistance effect test of wild-type Arabidopsis (spray); type: in vivo, Arabidopsis thaliana; conditions: genotype Wild, 560 g ae/ha; for Moderate resistant (number of plants): curly rosette leaves 7 days after spraying; for Non-resistant (number of plants): dead 14 days after spraying; for High resistant (number of plants): growth consistent with blank solvent 7 days after spraying; for Low resistant (number of plants): incapable of bolting 14 days after spraying
From the text: as §1, §2

[7] = test system: Corn plants containing control nucleotide sequence (S9 and S10); experiment: Herbicide-resistance effect test of corn plants with control sequence (spray, prop root development); type: in vivo; conditions: 8960 g ae/ha, 21 days after spraying
Protocol: as §3, §4

[8] = test system: Soybean plants containing control nucleotide sequence (S4 and S5); experiment: Herbicide-resistance effect of soybean plants with control sequence (spray, damage degree); type: in vivo; conditions: 2240 g ae/ha; for Average damage % 6HAT: 6 hours after spraying; for Average damage % 2DAT: 2 days after spraying; for Average damage % 7DAT: 7 days after spraying; for Average damage % 14DAT: 14 days after spraying
Protocol: as §5, §6

[9] = test system: Soybean plants containing 24DT11 nucleotide sequence (S1, S2 and S3); experiment: Herbicide-resistance effect of transgenic soybean plants (spray, damage degree); type: in vivo; conditions: for Average damage % 6HAT: 6 hours after spraying; for Average damage % 2DAT: 2 days after spraying; for Average damage % 7DAT: 7 days after spraying; for Average damage % 14DAT: 14 days after spraying
Protocol: as §5, §6

[10] = corn strain S6 (24DT11), 8960 g ae/ha (16-fold field)
[11] = corn strain S6 (24DT11), 8960 g ae/ha
[12] = corn strain S7 (24DT11), 8960 g ae/ha
[13] = corn strain S8 (24DT11), 8960 g ae/ha
[14] = corn strain S9 (control sequence)
[15] = corn strain S10 (control sequence)
[16] = soybean strain S4 (control sequence)
[17] = soybean strain S5 (control sequence)
[18] = soybean strain S1 (24DT11), 2240 g ae/ha (4-fold field)
[19] = soybean strain S1 (24DT11), 2240 g ae/ha
[20] = soybean strain S2 (24DT11), 2240 g ae/ha
[21] = soybean strain S3 (24DT11), 2240 g ae/ha

SMILES: CNC.O=C(O)COc1ccc(Cl)cc1Cl [2,4-D dimethyl ammonium salt]
- High resistant (number of plants) [1]: 26
- Moderate resistant (number of plants) [1]: 2
- Non-resistant (number of plants) [1]: 3
- Low resistant (number of plants) [1]: 1
- Abnormal development of brace roots (number of plants) [2]: 14
- Normal development of brace roots (number of plants) [2]: 0
- Proportion of normal development of brace roots [2]: 0%
- Moderate resistant (number of plants) [3]: 0
- Non-resistant (number of plants) [3]: 32
- High resistant (number of plants) [3]: 0
- Low resistant (number of plants) [3]: 0
- Average damage % 6HAT [4]: 48%
- Average damage % 2DAT [4]: 72%
- Average damage % 7DAT [4]: 94%
- Average damage % 14DAT [4]: 100%
- Normal development of brace roots (number of plants) [5, 10]: 15
- Abnormal development of brace roots (number of plants) [5, 11]: 0
- Proportion of normal development of brace roots [5, 11]: 100.00%
- Abnormal development of brace roots (number of plants) [5, 12]: 0
- Normal development of brace roots (number of plants) [5, 12]: 13
- Proportion of normal development of brace roots [5, 12]: 100.00%
- Abnormal development of brace roots (number of plants) [5, 13]: 0
- Normal development of brace roots (number of plants) [5, 13]: 12
- Proportion of normal development of brace roots [5, 13]: 100.00%
- Moderate resistant (number of plants) [6]: 0
- Non-resistant (number of plants) [6]: 32
- High resistant (number of plants) [6]: 0
- Low resistant (number of plants) [6]: 0
- Abnormal development of brace roots (number of plants) [7, 14]: 13
- Normal development of brace roots (number of plants) [7, 14]: 0
- Proportion of normal development of brace roots [7, 14]: 0%
- Abnormal development of brace roots (number of plants) [7, 15]: 12
- Normal development of brace roots (number of plants) [7, 15]: 0
- Proportion of normal development of brace roots [7, 15]: 0%
- Average damage % 6HAT [8, 16]: 46%
- Average damage % 2DAT [8, 16]: 76%
- Average damage % 7DAT [8, 16]: 96%
- Average damage % 14DAT [8, 16]: 100%
- Average damage % 6HAT [8, 17]: 53%
- Average damage % 2DAT [8, 17]: 77%
- Average damage % 7DAT [8, 17]: 91%
- Average damage % 14DAT [8, 17]: 100%
- Average damage % 6HAT [9, 18]: 7%
- Average damage % 2DAT [9, 19]: 4%
- Average damage % 7DAT [9, 19]: 0%
- Average damage % 14DAT [9, 19]: 0%
- Average damage % 6HAT [9, 20]: 5%
- Average damage % 2DAT [9, 20]: 2%
- Average damage % 7DAT [9, 20]: 0%
- Average damage % 14DAT [9, 20]: 0%
- Average damage % 6HAT [9, 21]: 13%
- Average damage % 2DAT [9, 21]: 6%
- Average damage % 7DAT [9, 21]: 2%
- Average damage % 14DAT [9, 21]: 0%

SMILES: Cc1cc(Cl)ccc1OCC(=O)O [agroxone]
- High resistant (number of plants) [1]: 22
- Moderate resistant (number of plants) [1]: 4
- Non-resistant (number of plants) [1]: 3
- Low resistant (number of plants) [1]: 2
- Abnormal development of brace roots (number of plants) [2]: 15
- Normal development of brace roots (number of plants) [2]: 0
- Proportion of normal development of brace roots [2]: 0%
- Moderate resistant (number of plants) [3]: 0
- Non-resistant (number of plants) [3]: 32
- High resistant (number of plants) [3]: 0
- Low resistant (number of plants) [3]: 0
- Average damage % 6HAT [4]: 34%
- Average damage % 2DAT [4]: 61%
- Average damage % 7DAT [4]: 82%
- Average damage % 14DAT [4]: 100%
- Normal development of brace roots (number of plants) [5, 10]: 11
- Abnormal development of brace roots (number of plants) [5, 11]: 0
- Proportion of normal development of brace roots [5, 11]: 100.00%
- Abnormal development of brace roots (number of plants) [5, 12]: 0
- Normal development of brace roots (number of plants) [5, 12]: 11
- Proportion of normal development of brace roots [5, 12]: 100.00%
- Abnormal development of brace roots (number of plants) [5, 13]: 0
- Normal development of brace roots (number of plants) [5, 13]: 12
- Proportion of normal development of brace roots [5, 13]: 100.00%
- Moderate resistant (number of plants) [6]: 0
- Non-resistant (number of plants) [6]: 32
- High resistant (number of plants) [6]: 0
- Low resistant (number of plants) [6]: 0
- Abnormal development of brace roots (number of plants) [7, 14]: 14
- Normal development of brace roots (number of plants) [7, 14]: 0
- Proportion of normal development of brace roots [7, 14]: 0%
- Abnormal development of brace roots (number of plants) [7, 15]: 12
- Normal development of brace roots (number of plants) [7, 15]: 0
- Proportion of normal development of brace roots [7, 15]: 0%
- Average damage % 6HAT [8, 16]: 38%
- Average damage % 2DAT [8, 16]: 69%
- Average damage % 7DAT [8, 16]: 87%
- Average damage % 14DAT [8, 16]: 100%
- Average damage % 6HAT [8, 17]: 47%
- Average damage % 2DAT [8, 17]: 74%
- Average damage % 7DAT [8, 17]: 92%
- Average damage % 14DAT [8, 17]: 100%
- Average damage % 6HAT [9, 18]: 12%
- Average damage % 2DAT [9, 19]: 7%
- Average damage % 7DAT [9, 19]: 0%
- Average damage % 14DAT [9, 19]: 0%
- Average damage % 6HAT [9, 20]: 9%
- Average damage % 2DAT [9, 20]: 5%
- Average damage % 7DAT [9, 20]: 0%
- Average damage % 14DAT [9, 20]: 0%
- Average damage % 6HAT [9, 21]: 19%
- Average damage % 2DAT [9, 21]: 12%
- Average damage % 7DAT [9, 21]: 7%
- Average damage % 14DAT [9, 21]: 4%
